Assay results published in doi:10.1101/2023.03.24.534094v2 (biorxiv, 2023).
Like-named read-outs stand apart in the source and are kept apart here. Blank lines part the entries; values can stand above or below the compound they belong to.

Columns and labels:
Assay in all cases: biochemical
BRAF = BRAF (Homo sapiens, UniProt P15056)
CASK = biological target: T1, CASK (Homo sapiens, UniProt O14936)
T1 sequence (O14936 1-926): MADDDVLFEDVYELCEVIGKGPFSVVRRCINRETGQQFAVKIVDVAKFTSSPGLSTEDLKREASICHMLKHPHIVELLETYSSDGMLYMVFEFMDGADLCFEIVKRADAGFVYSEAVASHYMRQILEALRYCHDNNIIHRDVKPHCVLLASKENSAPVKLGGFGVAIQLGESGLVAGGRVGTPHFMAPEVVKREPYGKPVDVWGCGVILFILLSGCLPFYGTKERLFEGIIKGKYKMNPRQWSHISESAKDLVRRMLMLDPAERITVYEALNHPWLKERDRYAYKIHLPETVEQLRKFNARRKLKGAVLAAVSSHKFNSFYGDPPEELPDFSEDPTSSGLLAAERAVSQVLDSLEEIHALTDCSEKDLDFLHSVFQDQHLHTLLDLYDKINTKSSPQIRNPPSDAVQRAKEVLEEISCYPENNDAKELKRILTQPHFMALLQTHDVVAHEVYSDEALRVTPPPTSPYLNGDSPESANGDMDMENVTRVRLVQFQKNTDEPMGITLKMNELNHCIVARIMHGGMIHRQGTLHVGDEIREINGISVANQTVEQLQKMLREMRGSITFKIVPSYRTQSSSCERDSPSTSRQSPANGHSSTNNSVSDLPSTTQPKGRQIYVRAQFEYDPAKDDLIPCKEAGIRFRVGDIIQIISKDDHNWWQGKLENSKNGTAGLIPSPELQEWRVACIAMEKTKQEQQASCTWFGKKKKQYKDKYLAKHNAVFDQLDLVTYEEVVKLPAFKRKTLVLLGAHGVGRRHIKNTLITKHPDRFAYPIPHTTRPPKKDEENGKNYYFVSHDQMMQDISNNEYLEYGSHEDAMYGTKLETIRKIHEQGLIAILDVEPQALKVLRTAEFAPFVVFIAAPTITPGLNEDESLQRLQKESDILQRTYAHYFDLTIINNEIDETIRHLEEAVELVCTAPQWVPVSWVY

CK2a2 = CK2a2 (Homo sapiens, UniProt P19784)
CK2a2, sequence (P19784 whole entry): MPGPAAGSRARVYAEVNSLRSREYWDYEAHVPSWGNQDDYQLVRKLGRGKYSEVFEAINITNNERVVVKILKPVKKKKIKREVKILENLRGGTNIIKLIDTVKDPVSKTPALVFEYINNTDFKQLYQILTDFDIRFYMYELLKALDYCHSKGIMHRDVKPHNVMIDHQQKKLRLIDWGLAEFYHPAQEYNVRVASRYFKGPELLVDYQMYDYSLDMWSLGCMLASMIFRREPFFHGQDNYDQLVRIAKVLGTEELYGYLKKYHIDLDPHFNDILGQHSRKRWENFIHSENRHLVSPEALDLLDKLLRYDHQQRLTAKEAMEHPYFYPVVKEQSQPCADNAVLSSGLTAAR

CLK3 = CLK3 (Homo sapiens, UniProt P49761)
CLK3, sequence (P49761 whole entry): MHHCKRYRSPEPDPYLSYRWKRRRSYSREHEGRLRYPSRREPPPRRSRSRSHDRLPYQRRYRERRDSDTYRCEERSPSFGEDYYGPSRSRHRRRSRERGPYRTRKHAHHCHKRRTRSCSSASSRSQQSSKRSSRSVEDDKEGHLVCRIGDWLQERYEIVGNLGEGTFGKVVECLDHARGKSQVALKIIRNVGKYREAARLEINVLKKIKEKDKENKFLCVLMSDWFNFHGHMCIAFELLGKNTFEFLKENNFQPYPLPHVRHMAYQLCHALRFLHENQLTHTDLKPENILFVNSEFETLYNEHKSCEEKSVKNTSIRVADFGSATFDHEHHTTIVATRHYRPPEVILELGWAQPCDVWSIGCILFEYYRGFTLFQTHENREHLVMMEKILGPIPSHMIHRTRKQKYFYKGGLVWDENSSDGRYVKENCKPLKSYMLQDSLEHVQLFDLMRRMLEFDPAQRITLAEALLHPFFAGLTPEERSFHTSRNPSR

CaMK2d = CaMK2d (Homo sapiens, UniProt Q13557)
CaMK2d, sequence (Q13557 whole entry): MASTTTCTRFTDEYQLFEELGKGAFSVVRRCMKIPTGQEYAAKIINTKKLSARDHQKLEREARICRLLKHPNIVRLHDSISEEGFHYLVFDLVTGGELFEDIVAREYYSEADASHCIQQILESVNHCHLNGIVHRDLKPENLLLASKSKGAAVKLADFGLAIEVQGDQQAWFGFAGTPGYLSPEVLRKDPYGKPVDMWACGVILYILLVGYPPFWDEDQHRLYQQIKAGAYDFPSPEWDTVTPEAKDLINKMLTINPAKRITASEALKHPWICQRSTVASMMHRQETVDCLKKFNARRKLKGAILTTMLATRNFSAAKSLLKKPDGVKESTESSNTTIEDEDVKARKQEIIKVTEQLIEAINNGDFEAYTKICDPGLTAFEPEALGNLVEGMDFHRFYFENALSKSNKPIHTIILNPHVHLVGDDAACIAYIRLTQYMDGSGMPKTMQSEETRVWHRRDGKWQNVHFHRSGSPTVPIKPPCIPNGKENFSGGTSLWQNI

DAPK1 = DAPK1 (Homo sapiens, UniProt P53355)
DAPK1, sequence (P53355 whole entry): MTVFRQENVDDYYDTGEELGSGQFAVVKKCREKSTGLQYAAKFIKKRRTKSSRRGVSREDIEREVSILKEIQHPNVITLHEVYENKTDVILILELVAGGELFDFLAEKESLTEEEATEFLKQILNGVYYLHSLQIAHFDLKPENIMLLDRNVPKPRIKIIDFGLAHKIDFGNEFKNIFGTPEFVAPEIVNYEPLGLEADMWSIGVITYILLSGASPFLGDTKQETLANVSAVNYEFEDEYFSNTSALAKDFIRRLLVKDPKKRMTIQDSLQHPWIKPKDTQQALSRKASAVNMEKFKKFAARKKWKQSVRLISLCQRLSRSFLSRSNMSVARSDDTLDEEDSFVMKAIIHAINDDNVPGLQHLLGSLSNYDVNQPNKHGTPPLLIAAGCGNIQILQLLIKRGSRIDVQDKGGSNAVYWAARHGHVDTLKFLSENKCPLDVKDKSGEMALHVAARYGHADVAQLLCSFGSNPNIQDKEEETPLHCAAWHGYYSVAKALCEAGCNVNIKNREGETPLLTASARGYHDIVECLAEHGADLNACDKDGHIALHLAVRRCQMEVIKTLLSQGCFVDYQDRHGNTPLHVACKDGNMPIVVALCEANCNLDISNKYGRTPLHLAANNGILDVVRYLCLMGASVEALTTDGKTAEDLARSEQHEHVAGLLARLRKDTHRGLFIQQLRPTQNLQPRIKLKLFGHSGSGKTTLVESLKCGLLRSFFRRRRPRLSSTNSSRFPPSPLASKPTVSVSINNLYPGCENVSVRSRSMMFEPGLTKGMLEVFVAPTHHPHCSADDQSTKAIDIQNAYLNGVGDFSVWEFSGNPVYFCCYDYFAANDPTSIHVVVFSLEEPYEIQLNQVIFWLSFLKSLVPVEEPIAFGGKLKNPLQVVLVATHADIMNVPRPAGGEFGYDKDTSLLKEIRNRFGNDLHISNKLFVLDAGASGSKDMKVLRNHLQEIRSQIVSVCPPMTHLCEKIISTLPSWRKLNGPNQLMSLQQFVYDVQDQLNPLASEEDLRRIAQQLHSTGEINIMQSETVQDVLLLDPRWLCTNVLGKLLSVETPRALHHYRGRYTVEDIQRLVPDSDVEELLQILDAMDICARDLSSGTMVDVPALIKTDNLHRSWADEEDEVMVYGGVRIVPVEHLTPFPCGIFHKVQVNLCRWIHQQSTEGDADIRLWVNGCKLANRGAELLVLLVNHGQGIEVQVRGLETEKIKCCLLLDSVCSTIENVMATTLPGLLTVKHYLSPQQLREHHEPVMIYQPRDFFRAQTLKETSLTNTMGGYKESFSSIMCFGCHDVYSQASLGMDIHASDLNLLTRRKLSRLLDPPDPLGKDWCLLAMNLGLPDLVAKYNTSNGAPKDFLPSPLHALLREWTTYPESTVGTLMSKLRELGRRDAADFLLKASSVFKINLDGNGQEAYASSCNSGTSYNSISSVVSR

GSK3B = GSK3B (Homo sapiens, UniProt P49841)
GSK3B, sequence (P49841 whole entry): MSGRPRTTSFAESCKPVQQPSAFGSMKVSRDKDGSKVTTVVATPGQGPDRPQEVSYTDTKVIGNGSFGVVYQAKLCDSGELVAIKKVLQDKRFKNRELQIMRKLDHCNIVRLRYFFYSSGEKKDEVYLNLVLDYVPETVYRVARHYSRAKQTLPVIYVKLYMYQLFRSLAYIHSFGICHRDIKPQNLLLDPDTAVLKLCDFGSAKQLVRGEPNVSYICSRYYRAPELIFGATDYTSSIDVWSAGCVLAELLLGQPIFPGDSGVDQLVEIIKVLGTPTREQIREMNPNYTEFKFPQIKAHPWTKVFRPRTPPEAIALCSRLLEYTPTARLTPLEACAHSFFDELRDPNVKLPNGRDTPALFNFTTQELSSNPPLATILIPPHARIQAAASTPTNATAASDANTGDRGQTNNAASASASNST

MARK3 = MARK3 (Homo sapiens, UniProt P27448)
MARK3, sequence (P27448 whole entry): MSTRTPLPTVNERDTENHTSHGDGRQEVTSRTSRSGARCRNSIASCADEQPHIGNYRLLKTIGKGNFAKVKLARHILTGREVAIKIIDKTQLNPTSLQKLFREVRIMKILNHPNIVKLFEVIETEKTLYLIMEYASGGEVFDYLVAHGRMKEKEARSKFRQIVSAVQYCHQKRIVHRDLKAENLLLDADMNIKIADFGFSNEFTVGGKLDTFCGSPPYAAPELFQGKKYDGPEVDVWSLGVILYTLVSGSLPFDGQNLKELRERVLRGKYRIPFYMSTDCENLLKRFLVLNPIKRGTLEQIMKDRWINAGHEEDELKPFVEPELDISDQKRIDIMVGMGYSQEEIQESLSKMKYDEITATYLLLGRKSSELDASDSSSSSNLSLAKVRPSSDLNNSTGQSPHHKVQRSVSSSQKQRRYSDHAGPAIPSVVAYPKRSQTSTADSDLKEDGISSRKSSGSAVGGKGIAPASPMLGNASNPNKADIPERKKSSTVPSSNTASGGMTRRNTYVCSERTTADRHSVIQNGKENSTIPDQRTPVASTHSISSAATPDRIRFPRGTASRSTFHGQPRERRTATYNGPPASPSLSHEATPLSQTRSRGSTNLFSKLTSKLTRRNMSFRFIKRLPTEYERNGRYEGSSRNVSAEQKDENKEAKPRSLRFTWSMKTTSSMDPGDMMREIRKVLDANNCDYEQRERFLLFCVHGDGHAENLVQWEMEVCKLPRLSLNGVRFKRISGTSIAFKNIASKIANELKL

MRCKa = MRCKa (Homo sapiens, UniProt Q5VT25)
MSK1b = MSK1b (Homo sapiens, UniProt O75582)
MSK1b, sequence (O75582 whole entry): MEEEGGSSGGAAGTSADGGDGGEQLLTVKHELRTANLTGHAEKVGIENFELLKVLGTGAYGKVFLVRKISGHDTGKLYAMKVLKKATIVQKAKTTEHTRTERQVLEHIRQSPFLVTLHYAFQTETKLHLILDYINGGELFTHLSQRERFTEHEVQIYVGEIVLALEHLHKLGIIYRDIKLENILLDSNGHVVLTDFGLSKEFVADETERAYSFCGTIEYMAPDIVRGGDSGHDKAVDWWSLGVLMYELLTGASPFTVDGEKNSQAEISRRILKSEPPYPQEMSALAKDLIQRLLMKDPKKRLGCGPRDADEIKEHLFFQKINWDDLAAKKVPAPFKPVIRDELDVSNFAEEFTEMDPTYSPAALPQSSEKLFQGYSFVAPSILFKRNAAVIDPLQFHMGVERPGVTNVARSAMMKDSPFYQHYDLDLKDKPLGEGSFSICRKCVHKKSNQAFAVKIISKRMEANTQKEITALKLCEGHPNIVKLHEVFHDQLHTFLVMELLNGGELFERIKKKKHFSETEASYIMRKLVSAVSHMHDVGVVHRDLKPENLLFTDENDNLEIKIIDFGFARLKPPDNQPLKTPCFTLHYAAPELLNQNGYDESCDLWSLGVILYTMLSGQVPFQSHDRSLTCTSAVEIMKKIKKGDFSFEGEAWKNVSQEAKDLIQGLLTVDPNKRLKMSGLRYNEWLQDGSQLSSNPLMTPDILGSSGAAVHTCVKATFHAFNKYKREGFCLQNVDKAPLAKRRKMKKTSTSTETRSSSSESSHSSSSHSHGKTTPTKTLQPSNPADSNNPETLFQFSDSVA

PCTAIRE1 = PCTAIRE1 (Homo sapiens, UniProt Q00536)
Wnk1 = Wnk1 (Homo sapiens, UniProt Q9H4A3)

Compound: CNc1ncc2cc(-c3cc(C(F)(F)F)ccc3Cl)c(=O)n(CCCCN)c2n1 [compound 9, 8-(4-Aminobutyl)-6-(2-chloro-5-(trifluoromethyl)phenyl)-2-(methylamino)pyrido[2,3-d]pyrimidin-7(8H)-one]
ΔTm at 10 µM (BRAF; read-out: dTm 9): 10.4 °C | ΔTm at 10 µM (CASK; read-out: dTm 9): -0.1 °C | ΔTm at 10 µM (CK2a2; read-out: dTm 9): 0 °C | ΔTm at 10 µM (CLK3; read-out: dTm 9): 0.4 °C | ΔTm at 10 µM (CaMK2d; read-out: dTm 9): 0.2 °C | ΔTm at 10 µM (DAPK1; read-out: dTm 9): 0.1 °C | ΔTm at 10 µM (GSK3B; read-out: dTm 9): 0.8 °C | ΔTm at 10 µM (MARK3; read-out: dTm 9): 0.7 °C | ΔTm at 10 µM (MRCKa; read-out: dTm 9): -0.5 °C | ΔTm at 10 µM (MSK1b; read-out: dTm 9): 0.9 °C | ΔTm at 10 µM (PCTAIRE1; read-out: dTm 9): 0.2 °C | ΔTm at 10 µM (Wnk1; read-out: dTm 9): 0.1 °C

Compound: CNc1ncc2cc(-c3cc(Cl)ccc3Cl)c(=O)n(CCCCN)c2n1 [compound 8, 8-(4-Aminobutyl)-6-(2,5-dichlorophenyl)-2-(methylamino)pyrido[2,3-d]pyrimidin-7(8H)-one]
ΔTm at 10 µM (BRAF; read-out: dTm 8): 10.8 °C | ΔTm at 10 µM (CASK; read-out: dTm 8): -0.2 °C | ΔTm at 10 µM (CK2a2; read-out: dTm 8): 0 °C | ΔTm at 10 µM (CLK3; read-out: dTm 8): 0.4 °C | ΔTm at 10 µM (CaMK2d; read-out: dTm 8): 0.4 °C | ΔTm at 10 µM (DAPK1; read-out: dTm 8): 0.1 °C | ΔTm at 10 µM (GSK3B; read-out: dTm 8): 1 °C | ΔTm at 10 µM (MARK3; read-out: dTm 8): 2.7 °C | ΔTm at 10 µM (MRCKa; read-out: dTm 8): 0 °C | ΔTm at 10 µM (MSK1b; read-out: dTm 8): 2.1 °C | ΔTm at 10 µM (PCTAIRE1; read-out: dTm 8): 0.7 °C | ΔTm at 10 µM (Wnk1; read-out: dTm 8): 0.3 °C

Compound: CNc1ncc2cc(-c3cc(Cl)ccc3Br)c(=O)n(CCCCN)c2n1 [compound 10, 8-(4-Aminobutyl)-6-(2-bromo-5-chlorophenyl)-2-(methylamino)pyrido[2,3-d]pyrimidin-7(8H)-one]
ΔTm at 10 µM (BRAF; read-out: dTm 10): 11.4 °C | ΔTm at 10 µM (CASK; read-out: dTm 10): 0 °C | ΔTm at 10 µM (CK2a2; read-out: dTm 10): 0.2 °C | ΔTm at 10 µM (CLK3; read-out: dTm 10): 0.4 °C | ΔTm at 10 µM (CaMK2d; read-out: dTm 10): 0.5 °C | ΔTm at 10 µM (DAPK1; read-out: dTm 10): 0.1 °C | ΔTm at 10 µM (GSK3B; read-out: dTm 10): 0.8 °C | ΔTm at 10 µM (MARK3; read-out: dTm 10): 3.7 °C | ΔTm at 10 µM (MRCKa; read-out: dTm 10): -0.2 °C | ΔTm at 10 µM (MSK1b; read-out: dTm 10): 2.1 °C | ΔTm at 10 µM (PCTAIRE1; read-out: dTm 10): 0.6 °C | ΔTm at 10 µM (Wnk1; read-out: dTm 10): 0.3 °C

The next lines start with the values.

ΔTm at 10 µM (BRAF; read-out: dTm 11): 11.6 °C | ΔTm at 10 µM (CASK; read-out: dTm 11): -0.3 °C | ΔTm at 10 µM (CK2a2; read-out: dTm 11): 0.1 °C | ΔTm at 10 µM (CLK3; read-out: dTm 11): 0.4 °C | ΔTm at 10 µM (CaMK2d; read-out: dTm 11): 0.2 °C | ΔTm at 10 µM (DAPK1; read-out: dTm 11): 0.2 °C | ΔTm at 10 µM (GSK3B; read-out: dTm 11): 0.8 °C | ΔTm at 10 µM (MARK3; read-out: dTm 11): 3.6 °C | ΔTm at 10 µM (MRCKa; read-out: dTm 11): -0.2 °C | ΔTm at 10 µM (MSK1b; read-out: dTm 11): 2 °C | ΔTm at 10 µM (PCTAIRE1; read-out: dTm 11): 0.9 °C | ΔTm at 10 µM (Wnk1; read-out: dTm 11): 0.4 °C
Compound: CNc1ncc2cc(-c3cc(Br)ccc3Br)c(=O)n(CCCCN)c2n1 [compound 11, 8-(4-Aminobutyl)-6-(2,5-dibromophenyl)-2-(methylamino)pyrido[2,3-d]pyrimidin-7(8H)-one]

ΔTm at 10 µM (BRAF; read-out: dTm 12): 2.3 °C | ΔTm at 10 µM (CASK; read-out: dTm 12): -0.2 °C | ΔTm at 10 µM (CK2a2; read-out: dTm 12): -1 °C | ΔTm at 10 µM (CLK3; read-out: dTm 12): -0.3 °C | ΔTm at 10 µM (CaMK2d; read-out: dTm 12): -0.2 °C | ΔTm at 10 µM (DAPK1; read-out: dTm 12): -0.9 °C | ΔTm at 10 µM (GSK3B; read-out: dTm 12): 1.7 °C | ΔTm at 10 µM (MARK3; read-out: dTm 12): 5.3 °C | ΔTm at 10 µM (MRCKa; read-out: dTm 12): -0.8 °C | ΔTm at 10 µM (MSK1b; read-out: dTm 12): 1 °C | ΔTm at 10 µM (PCTAIRE1; read-out: dTm 12): 1.3 °C | ΔTm at 10 µM (Wnk1; read-out: dTm 12): 1 °C
Compound: CNc1ncc2cc(-c3cc(F)c(-c4cccc(C)n4)cc3F)c(=O)n(CCCCN)c2n1 [compound 12, 8-(4-Aminobutyl)-6-(2,5-difluoro-4-(6-methylpyridin-2-yl)phenyl)-2-(methylamino)pyrido[2,3-d]pyrimidin-7(8H)-one]
